Data from the NIST ThermoML archive (doi:10.1021/je1013476).

How the values were obtained:
[1] = xn = mol fraction of the nth substance listed; details: 101 kPa, Liquid; for viscosity: Capillary tube (Ostwald / Ubbelohde) method; for mass density: Vibrating tube method
[2] = excess molar enthalpy (molar enthalpy of mixing); xn = mol fraction of the nth substance listed; details: 303.15 K, 101 kPa, Liquid, Calvet calorimetry

CCOC(=O)OCC [diethyl carbonate] + CCCO
[1]
Details | mass density [kg/m3] | viscosity [mPa·s]
288.15 K, x1 = 0.05124 | 821.17 | 2.135
288.15 K, x1 = 0.07262 | 826.61 | 2.007
288.15 K, x1 = 0.1063 | 834.89 | 1.833
288.15 K, x1 = 0.1511 | 845.43 | 1.638
288.15 K, x1 = 0.2122 | 858.98 | 1.459
288.15 K, x1 = 0.2638 | 869.76 | 1.33
288.15 K, x1 = 0.31 | 878.92 | 1.248
288.15 K, x1 = 0.4016 | 895.92 | 1.115
288.15 K, x1 = 0.5147 | 915.01 | 1
288.15 K, x1 = 0.5916 | 926.96 | 0.947
288.15 K, x1 = 0.5994 | 928.13 | 0.937
288.15 K, x1 = 0.6906 | 941.32 | 0.905
288.15 K, x1 = 0.7887 | 954.53 | 0.871
288.15 K, x1 = 0.8694 | 964.81 | 0.859
288.15 K, x1 = 0.9428 | 973.71 | 0.865
293.15 K, x1 = 0.04957 | 816.57 | 1.906
293.15 K, x1 = 0.1001 | 829.1 | 1.657
293.15 K, x1 = 0.2101 | 853.96 | 1.315
293.15 K, x1 = 0.3074 | 873.57 | 1.132
293.15 K, x1 = 0.4038 | 891.34 | 1.01
293.15 K, x1 = 0.5097 | 909.09 | 0.92
293.15 K, x1 = 0.6002 | 923.04 | 0.868
293.15 K, x1 = 0.6963 | 936.76 | 0.829
293.15 K, x1 = 0.8059 | 951.25 | 0.804
293.15 K, x1 = 0.8817 | 960.76 | 0.796
293.15 K, x1 = 0.9433 | 968.14 | 0.796
303.15 K, x1 = 0.05148 | 808.69 | 1.495
303.15 K, x1 = 0.1008 | 820.63 | 1.329
303.15 K, x1 = 0.2044 | 843.53 | 1.087
303.15 K, x1 = 0.3161 | 865.57 | 0.93
303.15 K, x1 = 0.4048 | 881.45 | 0.847
303.15 K, x1 = 0.4459 | 888.41 | 0.818
303.15 K, x1 = 0.6 | 912.35 | 0.743
303.15 K, x1 = 0.6892 | 924.91 | 0.715
303.15 K, x1 = 0.792 | 938.39 | 0.697
303.15 K, x1 = 0.8809 | 949.35 | 0.692
303.15 K, x1 = 0.9364 | 955.95 | 0.692
313.15 K, x1 = 0.04668 | 798.89 | 1.214
313.15 K, x1 = 0.1008 | 811.63 | 1.071
313.15 K, x1 = 0.2119 | 835.52 | 0.885
313.15 K, x1 = 0.3075 | 854.04 | 0.783
313.15 K, x1 = 0.4133 | 872.66 | 0.71
313.15 K, x1 = 0.5019 | 886.95 | 0.668
313.15 K, x1 = 0.5998 | 901.56 | 0.637
313.15 K, x1 = 0.6913 | 914.21 | 0.618
313.15 K, x1 = 0.7902 | 926.98 | 0.607
313.15 K, x1 = 0.8456 | 933.82 | 0.608
313.15 K, x1 = 0.8699 | 936.73 | 0.606
313.15 K, x1 = 0.8903 | 939.21 | 0.607
313.15 K, x1 = 0.9488 | 946.12 | 0.61

[2]
Details | excess molar enthalpy [kJ/mol]
x1 = 0.05945 | 0.433
x1 = 0.1227 | 0.82
x1 = 0.1956 | 1.17
x1 = 0.2498 | 1.37
x1 = 0.2677 | 1.44
x1 = 0.3018 | 1.55
x1 = 0.3762 | 1.76
x1 = 0.4569 | 1.84
x1 = 0.4906 | 1.87
x1 = 0.5642 | 1.89
x1 = 0.6182 | 1.85
x1 = 0.6932 | 1.74
x1 = 0.7453 | 1.59
x1 = 0.824 | 1.31
x1 = 0.872 | 1.04
x1 = 0.9168 | 0.727
